# In paper PMC3759959, “Design, Synthesis and Antiviral Activity Studies of Schizonepetin Derivatives” (International Journal of Molecular Sciences, 2013):
# Where two headings read alike, the source gives them in different places.
# What was measured:
# Vero cells = test: Cytotoxicity by CPE assay in Vero cells; type: cell-based; details: 72 h
# Protocol: (§1) The cytotoxicity was evaluated by cytopathic effect (CPE) inhibition assay. Vero cells were seeded into 96-well plates. After cells had been incubated for 24 h at 37 °C in 5% CO2, they were exposed to drugs with two-fold serial dilutions. Untreated Vero cells were used as controls. All cultures were incubated again in 5% CO2 at 37 °C for 72 h. The cells were examined microscopically for the cytotoxicity effects. Then TC50 were calculated by the Reed-Muench method.
# MDCK cells = test: Cytotoxicity against MDCK cells by CPE assay; type: cell-based
# Protocol: as §1
# The procedures for Anti-H3N2 studies and cytotoxicity against MDCK cells in vitro by CPE inhibition assay were similar to Anti HSV-1 studies and cytotoxicity against Vero cells.
# influenza virus H3N2 = test: Anti-H3N2 CPE inhibition assay in MDCK cells; details: for IC50: read-out: IC50, antiviral activity against H3N2 virus; for antiviral activity against influenza virus H3N2 (in words): in vitro
# HSV-1 virus = test: Anti HSV-1 CPE inhibition assay in Vero cells; details: for IC50: read-out: IC50, antiviral activity against HSV-1 virus; for antiviral activity against HSV-1 (in words): in vitro
# H1N1 = details: previous study; cited from earlier work
# [1] = test system: abdominal capillary permeability; details: cited from earlier work
# [2] = cytotoxicity, Vero cells, Reed-Muench method
# [3] = Human alphaherpesvirus 1, Vero, 72 h
Compound,TC50 (Antiviral activity against HSV-1 virus section) (Vero cells; [2]) [µM],TC50 (Antiviral activity against H3N2 virus section) (MDCK cells) [µM],"IC50 (influenza virus H3N2; Influenza A virus, H3N2, MDCK) [µM]","TI (TC50/IC50), H3N2 virus (influenza virus H3N2)",antiviral activity against influenza virus H3N2 (in words) (influenza virus H3N2; CPE inhibition),IC50 (HSV-1 virus; [3]) [µM],antiviral activity against HSV-1 (in words) (HSV-1 virus; CPE inhibition),"TI (TC50/IC50), HSV-1 virus (HSV-1 virus)",TC50 (Antiviral activity against HSV-1 virus section) (Vero cells; African green monkey) [µM],therapeutic effect on the H1N1 infected mice (H1N1),effect on increase of abdominal capillary permeability by HAc [1],"IC50 (influenza virus H3N2; CPE inhibition, MDCK cells) [µM]","IC50 (HSV-1 virus; CPE inhibition, Vero cells, 30 TCID50, 72 h) [µM]"
"CC1=C2CC[C@@H](C)C[C@]2(OC(=O)c2ccc(Br)cc2)OC1=O [M33, (6R,7aS)-3,6-Dimethyl-2-Oxo-2,4,5,6,7,7a-Hexahydrobenzofuran-7a-yl 4-Bromobenzoate]",80.3,71.0,13.7,5.2,high antiviral activity,> 11.5,little effect,,,,,,
"CCC(=O)O[C@@]12C[C@H](C)CCC1=C(C)C(=O)O2 [M5, (6R,7aR)-3,6-Dimethyl-2-oxo-2,4,5,6,7,7a-Hexahydrobenzofuran-7a-yl Propionate]",66.0,39.1,> 39.1,,,26.9,obvious antiviral activity,2.5,,,,,
"Nc1nc2c(ncn2COCCO)c(=O)[nH]1 [Aciclovir, reference compound]",,,,,,4.9,,>136.4,>666.0,,,,
"CC1=C2CC[C@@H](C)C[C@]2(OC(=O)c2cccc(Br)c2)OC1=O [M31, (6R,7aS)-3,6-Dimethyl-2-Oxo-2,4,5,6,7,7a-Hexahydrobenzofuran-7a-yl 3-Bromobenzoate]",80.3,80.3,> 39.1,,little effect,> 11.5,little effect,,,,,,
"CC1=C2CC[C@@H](C)C[C@]2(OC(=O)c2ccc([N+](=O)[O-])cc2)OC1=O [M9, (6R,7aS)-3,6-Dimethyl-2-Oxo-2,4,5,6,7,7a-Hexahydrobenzofuran-7a-yl 4-Nitrobenzoate]",216.0,216.0,> 39.1,,,> 11.5,,,,,,,
"CC1=C2CC[C@@H](C)C[C@]2(OC(=O)c2cccc(Cl)c2)OC1=O [M25, (6R,7aS)-3,6-Dimethyl-2-Oxo-2,4,5,6,7,7a-Hexahydrobenzofuran-7a-yl 3-Chlorobenzoate]",11.5,80.8,> 39.1,,little effect,> 11.5,,,,,,,
"CC1=C2CC[C@@H](C)C[C@]2(OC(=O)c2ccc(F)cc2)OC1=O [M22, (6R,7aS)-3,6-Dimethyl-2-Oxo-2,4,5,6,7,7a-Hexahydrobenzofuran-7a-yl 4-Fluorobenzoate]",87.8,60.5,> 39.1,,little effect,> 11.5,,,,,,,
"CC1=C2CC[C@@H](C)C[C@]2(OC(=O)c2cccc(I)c2)OC1=O [M29, (6R,7aS)-3,6-Dimethyl-2-oxo-2,4,5,6,7,7a-Hexahydrobenzofuran-7a-yl 3-Iodobenzoate]",45.4,71.1,> 39.1,,little effect,> 11.5,,,,,,,
CC1=C2CC[C@@H](C)C[C@@]2(O)OC1=O [Schizonepetin],834.2,829.4,,,low antiviral activity,,low antiviral activity,,,obviously positive therapeutic effect,inhibit the increase of abdominal capillary permeability,> 39.1,> 11.5
"CC1=C2CC[C@@H](C)C[C@@]2(OC(=O)c2cccnc2)OC1=O [M21, (6R,7aS)-3,6-Dimethyl-2-Oxo-2,4,5,6,7,7a-Hexahydrobenzofuran-7a-yl Nicotinate]",439.0,180.5,> 39.1,,,> 11.5,,,,,,,
"CC1=C2CC[C@@H](C)C[C@@]2(OC(=O)c2ccc(C(F)(F)F)cc2)OC1=O [M35, (6R,7aS)-3,6-Dimethyl-2-Oxo-2,4,5,6,7,7a-Hexahydrobenzofuran-7a-yl 4-(Trifluoromethyl) Benzoate]",82.8,75.4,29.7,2.5,high antiviral activity,> 11.5,,,,,,,
"CC1=C2CC[C@@H](C)C[C@]2(OC(=O)c2ccccc2)OC1=O [M8, (6R,7aS)-3,6-Dimethyl-2-Oxo-2,4,5,6,7,7a-Hexahydrobenzofuran-7a-yl Benzoate]",24.8,54.2,> 39.1,,,> 11.5,,,,,,,
"CC1=C2CC[C@@H](C)C[C@]2(OC(=O)c2ccc(I)cc2)OC1=O [M10, (6R,7aS)-3,6-Dimethyl-2-Oxo-2,4,5,6,7,7a-Hexahydrobenzofuran-7a-yl 4-Iodobenzoate]",44.2,41.3,> 39.1,,little effect,> 11.5,,,,,,,
"CO[C@@]12C[C@H](C)CCC1=C(C)C(=O)O2 [M1, (6R,7aR)-7a-Methoxy-3,6-Dimethyl-5,6,7,7a-Tetrahydrobenzofuran-2(4H)-One]",366.8,298.5,> 39.1,,,> 11.5,,,,,,,
"CC1=C2CC[C@@H](C)C[C@]2(OC(=O)c2cccc(F)c2)OC1=O [M28, (6R,7aS)-3,6-Dimethyl-2-Oxo-2,4,5,6,7,7a-Hexahydrobenzofuran-7a-yl 3-Fluorobenzoate]",170.4,96.4,34.5,2.8,high antiviral activity,> 11.5,,,,,,,
"NC(=O)c1ncn([C@@H]2O[C@H](CO)[C@@H](O)[C@H]2O)n1 [Ribavirin, reference compound]",,,1020,,,,,,,,,,
"CC1=C2CC[C@@H](C)C[C@@]2(OC(=O)c2cccs2)OC1=O [M27, (6R,7aS)-3,6-Dimethyl-2-Oxo-2,4,5,6,7,7a-Hexahydrobenzofuran-7a-yl Thiophene-2-Carboxylate]",100.3,177.4,> 39.1,,,> 11.5,,,,,,,
"CCO[C@@]12C[C@H](C)CCC1=C(C)C(=O)O2 [M2, (6R,7aR)-7a-Ethoxy-3,6-Dimethyl-5,6,7,7a-Tetrahydrobenzofuran-2(4H)-One]",246.7,139.5,> 39.1,,,100,obvious antiviral activity,2.5,,,,,
"CC(=O)O[C@@]12C[C@H](C)CCC1=C(C)C(=O)O2 [M4, (6R,7aR)-3,6-Dimethyl-2-oxo-2,4,5,6,7,7a-Hexahydrobenzofuran-7a-Yl Acetate]",374.6,319.2,> 39.1,,,93.8,obvious antiviral activity,4.0,,,,,
"CC1=C2CC[C@@H](C)C[C@]2(OC(=O)c2ccc(Cl)cc2)OC1=O [M11, (6R,7aS)-3,6-Dimethyl-2-Oxo-2,4,5,6,7,7a-Hexahydrobenzofuran-7a-yl 4-Chlorobenzoate]",47.1,47.1,> 39.1,,little effect,> 11.5,,,,,,,
"CC1=C2CC[C@@H](C)C[C@@]2(OC(=O)c2ccccc2Br)OC1=O [M34, (6R,7aS)-3,6-Dimethyl-2-Oxo-2,4,5,6,7,7a-Hexahydrobenzofuran-7a-yl 2-Bromobenzoate]",80.3,71.0,> 39.1,,little effect,17.1,obvious antiviral activity,4.7,,,,,
